In ChEMBL document CHEMBL3727357, “Compositions and methods for inhibiting g protein signaling” (2010) one finds IC50, inhibition and Activity data, which are given here for 15 molecules.

The target of experiment [1] is Guanine nucleotide-binding protein G(I)/G(S)/G(T) subunit beta-1/gamma-2 (Homo sapiens, UniProt P59768+P62873). Nature of the experiment: (§1) Inhibition of SIGKAFKILGYPDYD binding to biotinylated Gbeta1gamma2 (unknown origin) incubated for 1 hr by phage ELISA. Format: protein-complex assay.
Chain of Guanine nucleotide-binding protein G(I)/G(S)/G(T) subunit beta-1/gamma-2 (Homo sapiens, UniProt P59768+P62873) (P59768 2-71 partner limits assumed): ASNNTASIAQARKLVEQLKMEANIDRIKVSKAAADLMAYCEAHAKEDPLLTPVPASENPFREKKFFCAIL
Chain of Guanine nucleotide-binding protein G(I)/G(S)/G(T) subunit beta-1/gamma-2 (Homo sapiens, UniProt P59768+P62873) (P62873 2-340 limits assumed): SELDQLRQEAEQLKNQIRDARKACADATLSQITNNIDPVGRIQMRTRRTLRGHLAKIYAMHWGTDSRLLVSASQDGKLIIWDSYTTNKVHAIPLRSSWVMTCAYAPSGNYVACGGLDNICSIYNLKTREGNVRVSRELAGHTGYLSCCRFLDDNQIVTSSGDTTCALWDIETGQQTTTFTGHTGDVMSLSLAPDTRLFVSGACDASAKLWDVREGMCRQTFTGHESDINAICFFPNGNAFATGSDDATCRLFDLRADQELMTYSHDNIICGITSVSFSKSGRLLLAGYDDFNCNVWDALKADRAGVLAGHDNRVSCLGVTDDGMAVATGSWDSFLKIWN
Experiment [2] has as its system Mus musculus. Nature of the experiment: Antiinflammatory activity in Swiss-Webster mouse assessed as inhibition of carrageenan-induced paw edema at 2.5 mg/kg, ip administered 1 hr followed by carrageenan challenge measured 3 times every 2 hrs. Format: functional, organism-based.
The test system of experiment [3] is Mus musculus. Nature of the experiment: Antiinflammatory activity in Swiss-Webster mouse carrageenan-induced paw edema model assessed as inhibition of neutrophils recruitment in edematous fluid at 2.5 mg/kg, ip administered 1 hr followed by carrageenan challenge. Format: functional, organism-based.
Experiment [4] has as its system Mus musculus. As to the kind of experiment: Antiinflammatory activity in Swiss-Webster mouse carrageenan-induced paw edema model assessed as reduction of paw exudate volume at 2.5 mg/kg, ip administered 1 hr followed by carrageenan challenge. Type of experiment: functional, organism-based.
Experiment [5] addresses T1, Guanine nucleotide-binding protein G(I)/G(S)/G(T) subunit beta-1/gamma-2 (Homo sapiens, UniProt P62873+P59768). Nature of the experiment: Inhibition of biotinylated Gbeta1gamma2 (unknown origin)-mediated PLCbeta3 activation incubated for 16 hrs. Type of experiment: protein-complex assay.
Target sequence in this assay (P59768 2-71 limits assumed): as the sequence (P59768 2-71 partner limits assumed) above
Target sequence in this assay (P62873 2-340 limits assumed): as the sequence (P62873 2-340 limits assumed) above
Experiment [6] deals with T1, Guanine nucleotide-binding protein G(I)/G(S)/G(T) subunit beta-1/gamma-2. As to the kind of experiment: Inhibition of biotinylated Gbeta1gamma2 (unknown origin) binding to PLCbeta2 at 1 uM incubated for 16 hrs. Format: protein-complex assay.
Target sequence in this assay (P59768 2-71 partner limits assumed): as the sequence (P59768 2-71 partner limits assumed) above
Target sequence in this assay (P62873 2-340 limits assumed): as the sequence (P62873 2-340 limits assumed) above
Experiment [7] relates to HL-60. As to the kind of experiment: Effect on fMLP-stimulated ERK1/2 phosphorylation in human HL60 cells at 10 uM incubated for 5 mins prior to fMLP stimulation by Western blot analysis. Type of experiment: functional, cell-based.
Experiment [8] addresses T1, Guanine nucleotide-binding protein G(I)/G(S)/G(T) subunit beta-1/gamma-2. Nature of the experiment: Inhibition of biotinylated Gbeta1gamma2 (unknown origin) binding to PLCbeta3 at 1 uM incubated for 16 hrs. Type of experiment: protein-complex assay.
Target sequence in this assay (P59768 2-71 partner limits assumed): as the sequence (P59768 2-71 partner limits assumed) above
Target sequence in this assay (P62873 2-340 limits assumed): as the sequence (P62873 2-340 limits assumed) above
Experiment [9] has as its system HL-60. As to the kind of experiment: Binding affinity to Gbetagamma in human HL60 cells assessed as inhibition of fMLP-stimulated GRK2 translocation at 10 uM incubated for 5 mins prior to fMLP stimulation by Western blot analysis. Type of experiment: cell-based.
Experiment [10] concerns the target T1, Guanine nucleotide-binding protein G(I)/G(S)/G(T) subunit beta-1/gamma-2. Described as §1. Type of experiment: protein-complex assay.
Target sequence in this assay (P59768 2-71 partner limits assumed): as the sequence (P59768 2-71 partner limits assumed) above
Target sequence in this assay (P62873 2-340 limits assumed): as the sequence (P62873 2-340 limits assumed) above
Experiment [11] has the same target. As to the kind of experiment: Inhibition of SIGKAFKILGYPDYD binding to biotinylated Gbeta1gamma2 (unknown origin) at 300 uM incubated for 1 hr by phage ELISA. Format: protein-complex assay.
Target sequence in this assay (P59768 2-71 partner limits assumed): as the sequence (P59768 2-71 partner limits assumed) above
Target sequence in this assay (P62873 2-340 limits assumed): as the sequence (P62873 2-340 limits assumed) above
Experiment [12] deals with Mu-type opioid receptor (Homo sapiens) (UniProt P35372). As to the kind of experiment: Inhibition of human Gbetagamma-dependent mu opioid receptor-mediated PLC activation expressed in CHO cells assessed as reduction of morphine-mediated total inositol phosphate production at 10 uM after 30 mins by scintillation counting analysis in presence of [3H]inositol. Format: functional, cell-based.
Chain of Mu-type opioid receptor (Homo sapiens) (P35372 whole entry): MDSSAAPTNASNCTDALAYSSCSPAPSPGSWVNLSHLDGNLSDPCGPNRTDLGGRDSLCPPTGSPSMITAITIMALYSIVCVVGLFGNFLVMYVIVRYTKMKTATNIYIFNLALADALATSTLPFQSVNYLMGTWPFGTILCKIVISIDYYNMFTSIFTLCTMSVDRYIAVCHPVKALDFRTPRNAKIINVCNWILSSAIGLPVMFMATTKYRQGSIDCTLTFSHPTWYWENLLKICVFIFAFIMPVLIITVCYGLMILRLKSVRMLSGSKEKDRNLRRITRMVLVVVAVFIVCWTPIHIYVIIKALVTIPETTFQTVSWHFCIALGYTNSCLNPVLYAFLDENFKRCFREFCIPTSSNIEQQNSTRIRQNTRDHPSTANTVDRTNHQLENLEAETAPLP

For experiment [13] the target is unchanged. As to the kind of experiment: Inhibition of human Gbetagamma-dependent mu opioid receptor-mediated PLC activation expressed in CHO cells assessed as reduction of DAMGO-mediated total inositol phosphate production at 10 uM after 30 mins by scintillation counting analysis in presence of [3H]inositol. Type of experiment: functional, cell-based.
Experiment [14] relates to HL-60. Nature of the experiment: Antiinflammatory activity in differentiated human HL60 cells assessed as inhibition of fMLP-stimulated cell migration at 10 uM after 1 hr by Boyden chamber method. Type of experiment: functional, cell-based.
The species entered for experiment [15] is Mus musculus. Nature of the experiment: Inhibition of Gbetagamma-GRK2 interaction in mouse cardiomyocytes assessed as increase in isoproterenol-induced contractility. Type of experiment: cell-based.
Experiment [16] concerns HL-60. As to the kind of experiment: Binding affinity to Gbetagamma in differentiated human HL60 cells assessed as inhibition of fMLP-stimulated Rac1 activation at 10 uM preincubated for 10 mins followed by fMLP challenge for 90 secs by Western blot analysis. Type of experiment: cell-based.
The species named for experiment [17] is Mus musculus. Nature of the experiment: Inhibition of Gbetagamma-GRK2 interaction in mouse cardiomyocytes assessed as increase in contractility. Format: cell-based.
Experiment [18] relates to CHO. Nature of the experiment: Inhibition of human Gbetagamma-dependent kappa opioid receptor-mediated PLC activation expressed in CHO cells assessed as reduction of U50,488-mediated total inositol phosphate production at 10 uM after 30 mins by scintillation counting analysis in presence of [3H]inositol. Type of experiment: cell-based.
Experiment [19] deals with T1, Guanine nucleotide-binding protein G(I)/G(S)/G(T) subunit beta-1/gamma-2. Nature of the experiment: Inhibition of biotinylated Gbeta1gamma2 (unknown origin)-mediated PLCbeta2 activation incubated for 16 hrs. Format: protein-complex assay.
Target sequence in this assay (P59768 2-71 limits assumed): as the sequence (P59768 2-71 partner limits assumed) above
Target sequence in this assay (P62873 2-340 limits assumed): as the sequence (P62873 2-340 limits assumed) above
The test system of experiment [20] is HL-60. As to the kind of experiment: Binding affinity to Gbetagamma in human HL60 cells assessed as inhibition of fMLP-stimulated Ca2+ release at 10 uM incubated for 5 mins prior to fMLP stimulation by Fura2-AM dye-based assay. Format: cell-based.
Experiment [21] deals with HL-60. As to the kind of experiment: Binding affinity to Gbetagamma in human HL60 cells assessed as inhibition of fMLP-stimulated GFP-PHAkt translocation to plasma membrane at 10 uM incubated for 5 mins prior to fMLP stimulation by Western blot analysis. Type of experiment: cell-based.
Experiment [22] addresses Delta-type opioid receptor (Homo sapiens) (UniProt P41143). The following applies: CHO, 100 uM.
Description: Inhibition of human Gbetagamma-dependent delta opioid receptor-mediated PLC activation expressed in CHO cells assessed as reduction of Deltorphin 2-mediated total inositol phosphate production at 100 uM after 30 mins by scintillation counting analysis in presence of [3H]inositol
For experiment [23] the target is unchanged. To be noted: CHO, 100 uM. The source holds these as a separate data set.
Description: Inhibition of human Gbetagamma-dependent delta opioid receptor-mediated PLC activation expressed in CHO cells assessed as reduction of DPDPE-mediated total inositol phosphate production at 100 uM after 30 mins by scintillation counting analysis in presence of [3H]inositol

pIC50: −log10 of the molar value. Active and inactive are the calls of the source. The calls are words filed in the database; no cut-off is given here.

Chain of Delta-type opioid receptor (Homo sapiens) (P41143 whole entry): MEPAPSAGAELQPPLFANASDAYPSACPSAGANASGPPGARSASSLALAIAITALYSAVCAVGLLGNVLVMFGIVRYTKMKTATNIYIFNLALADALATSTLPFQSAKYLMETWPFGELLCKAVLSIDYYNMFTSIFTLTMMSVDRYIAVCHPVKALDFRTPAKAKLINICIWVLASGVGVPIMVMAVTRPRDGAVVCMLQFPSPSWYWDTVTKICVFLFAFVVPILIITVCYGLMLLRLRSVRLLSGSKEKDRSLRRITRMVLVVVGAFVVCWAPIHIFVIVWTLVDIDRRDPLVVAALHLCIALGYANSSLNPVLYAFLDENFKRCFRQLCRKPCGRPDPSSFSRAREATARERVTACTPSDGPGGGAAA

Consider `O=C(O)c1cccc2cccc(-c3c4ccc(=O)c(O)c-4oc4c(O)c(O)ccc34)c12`, for which the pIC50 in experiment [1] is 6.89.

On to `COc1ccc2c(c1)c(CC(=O)O)c(C)n2C(=O)c1ccc(Cl)cc1`, for which the inhibition result in experiment [2] and in experiment [3] was “Active” each time. In addition, the outcome in [4] was Active.

Turning to `O=C1c2ccccc2C(=O)c2c(Nc3cc4c5c(ccc6c7ccc8c9c(cc(Nc%10cccc%11c%10C(=O)c%10ccccc%10C%11=O)c(c3c56)c97)-c3ccccc3C8=O)C(=O)c3ccccc3-4)cccc21`, the IC50 entry in experiment [5] was “Not Active”.

Consider `COc1cc2c(c(OC)c1OC)-c1ccc(O)c(=O)cc1C(N)CC2` (configuration not stated), for which the inhibition result in [6] and in experiment [8] was “inactive” throughout. In addition, the outcome in experiment [7] was inactive. In experiment [9], the inhibition entry is “Active”.

The molecule `CC1C2C=CC1C(c1c3ccc(=O)cc-3oc3cc(O)ccc13)C2C(=O)O` (configuration not stated) showed a pIC50 in experiment [1] of 4.85.

Take `O=c1cc2oc3cc(O)c(O)cc3c(-c3ccccc3O)c-2cc1O`: the inhibition entry in experiment [10] and in experiment [11] was “inactive” in each case.

Consider `COC(=O)/C=C/C(=O)N[C@@H]1CC[C@@]2(O)[C@H]3Cc4ccc(O)c5c4[C@@]2(CCN3CC2CC2)[C@H]1O5`, for which the inhibition result in experiment [12] and in experiment [13] was “Active” throughout.

With `Cc1c2cc(O)c(=O)cc-2oc2cc(O)c(O)cc12`, the inhibition result in [10] and in [11] was “inactive” in each case.

In the case of `Cc1c2ccc(=O)cc-2oc2cc(O)ccc12`, the inhibition result in experiment [10] and in experiment [11] was “inactive” each time.

Consider `O=C(O)C1CCCCC1c1c2ccc(=O)cc-2oc2cc(O)ccc12` (configuration not stated), for which the inhibition entry in experiment [14], in experiment [15], in experiment [16] and in experiment [17] was “inactive” in each case.

In the case of `Oc1ccc2c3c1O[C@H]1c4[nH]c5c(c4C[C@@]4(O)[C@@H](C2)N(CC2CC2)CC[C@]314)C[C@@]1(O)[C@H]2Cc3ccc(O)c4c3[C@@]1(CCN2CC1CC1)[C@H]5O4`, in [18], the inhibition entry was “inactive”.

Consider `O=C(O)c1ccc(-c2c3ccc(=O)cc-3oc3cc(O)ccc23)cc1`, for which the inhibition result in experiment [10] and in experiment [11] was “inactive” in each case.

In the case of `Ic1ccc2c(c1)N(c1ccccc1)c1cc(Nc3ccc4nc5ccc(I)cc5[n+](-c5ccccc5)c4c3)ccc1N2`, the IC50 entry in experiment [19] and in experiment [5] was “Not Active” throughout.

As to `O=C(O)C1CC23C(Cl)C(Cl)C(Cl)C(Cl)C2(CC1c1c2ccc(=O)c(O)c-2oc2c(O)c(O)ccc12)C3(Cl)Cl` (configuration not stated), the inhibition result in [20] and in [21] was “Active” each time. Also, the outcome in experiment [7] was inactive.

For `Oc1ccc2c3c1O[C@H]1c4[nH]c5ccccc5c4C[C@@]4(O)[C@@H](C2)N(CC2CC2)CC[C@]314`, the inhibition entry in experiment [22] and in experiment [23] was “inactive” each time.
